Measurements published in the supplement of paper PMC10307832.

What was measured:
Test in all cases: relative viability (nuclei count vs DMSO), 5 days (fraction); higher = more cells survive
NCI-H647 = test system: NCI-H647
Outline: (§1)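 Lung cancer cell lines were pin-tool dosed in 1536-well plates on the day after seeding, with either a lone drug or a fixed anchor-drug dose plus five library-drug doses (not always all listed) in √10 steps. Nuclei were counted on 4× images after 5 days. Relative viability is the ratio of treated-well to vehicle-well nuclei counts, with each value a median of duplicate plates.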

NCI-H23 = test system: NCI-H23
Outline: as §1

NCI-H650 = test system: NCI-H650
Outline: as §1

NCI-H3122 = test system: NCI-H3122
Outline: as §1

BEN = test system: BEN
Outline: as §1

NCI-H2087 = test system: NCI-H2087
Outline: as §1

NCI-H2023 = test system: NCI-H2023
Outline: as §1

NCI-H1395 = test system: NCI-H1395
Outline: as §1

LOU-NH91 = test system: LOU-NH91
Outline: as §1

HARA = test system: HARA
Outline: as §1

NCI-H596 = test system: NCI-H596
Outline: as §1

NCI-H727 = test system: NCI-H727
Outline: as §1

NCI-H2347 = test system: NCI-H2347
Outline: as §1

EMC-BAC-2 = test system: EMC-BAC-2
Outline: as §1

NCI-H1993 = test system: NCI-H1993
Outline: as §1

HCC-44 = test system: HCC-44
Outline: as §1

201T = test system: 201T
Outline: as §1

NCI-H838 = test system: NCI-H838
Outline: as §1

NCI-H2126 = test system: NCI-H2126
Outline: as §1

## CCN(CC)CCCCNc1ncc2cc(-c3cc(OC)cc(OC)c3)c(NC(=O)NC(C)(C)C)nc2n1 + CS(=O)(=O)CCNCc1ccc(-c2ccc3ncnc(Nc4ccc(OCc5cccc(F)c5)c(Cl)c4)c3c2)o1 [Lapatinib] (partner 2 µM)
NCI-H647; first compound 0.01 µM
  relative viability: 1.22
NCI-H647; first compound 0.03162 µM
  relative viability: 1.25
NCI-H647; first compound 0.1 µM
  relative viability: 1.28
NCI-H647; first compound 0.3162 µM
  relative viability: 1.48
NCI-H647; first compound 1 µM
  relative viability: 0.493
NCI-H23; first compound 0.01 µM
  relative viability: 1.09
NCI-H23; first compound 0.03162 µM
  relative viability: 1.12
NCI-H23; first compound 0.1 µM
  relative viability: 1.36
NCI-H23; first compound 0.3162 µM
  relative viability: 1.1
NCI-H23; first compound 1 µM
  relative viability: 0.961
NCI-H650; first compound 0.01 µM
  relative viability: 0.988
NCI-H650; first compound 0.03162 µM
  relative viability: 0.944
NCI-H650; first compound 0.1 µM
  relative viability: 1.06
NCI-H650; first compound 0.3162 µM
  relative viability: 1.18
NCI-H650; first compound 1 µM
  relative viability: 0.734
NCI-H3122; first compound 0.01 µM
  relative viability: 0.997
NCI-H3122; first compound 0.03162 µM
  relative viability: 1.04
NCI-H3122; first compound 0.1 µM
  relative viability: 1.16
NCI-H3122; first compound 0.3162 µM
  relative viability: 1.07
NCI-H3122; first compound 1 µM
  relative viability: 1
BEN; first compound 0.01 µM
  relative viability: 0.76
BEN; first compound 0.03162 µM
  relative viability: 0.539
BEN; first compound 0.1 µM
  relative viability: 0.767
BEN; first compound 0.3162 µM
  relative viability: 0.835
BEN; first compound 1 µM
  relative viability: 0.651
NCI-H2087; first compound 0.01 µM
  relative viability: 1.15
NCI-H2087; first compound 0.03162 µM
  relative viability: 0.99
NCI-H2087; first compound 0.1 µM
  relative viability: 1.23
NCI-H2087; first compound 0.3162 µM
  relative viability: 1.06
NCI-H2087; first compound 1 µM
  relative viability: 1.07
NCI-H2023; first compound 0.01 µM
  relative viability: 0.748
NCI-H2023; first compound 0.03162 µM
  relative viability: 0.94
NCI-H2023; first compound 0.1 µM
  relative viability: 1.17
NCI-H2023; first compound 0.3162 µM
  relative viability: 0.919
NCI-H2023; first compound 1 µM
  relative viability: 0.798
NCI-H1395; first compound 0.03162 µM
  relative viability: 0.93
NCI-H1395; first compound 0.1 µM
  relative viability: 1.07
NCI-H1395; first compound 0.3162 µM
  relative viability: 0.725
NCI-H1395; first compound 1 µM
  relative viability: 0.551
LOU-NH91; first compound 0.01 µM
  relative viability: 0.664
LOU-NH91; first compound 0.03162 µM
  relative viability: 0.746
LOU-NH91; first compound 0.1 µM
  relative viability: 0.824
LOU-NH91; first compound 0.3162 µM
  relative viability: 0.885
LOU-NH91; first compound 1 µM
  relative viability: 0.737
HARA; first compound 0.01 µM
  relative viability: 0.833
HARA; first compound 0.03162 µM
  relative viability: 0.469
HARA; first compound 0.1 µM
  relative viability: 0.764
HARA; first compound 0.3162 µM
  relative viability: 0.581
HARA; first compound 1 µM
  relative viability: 0.227
NCI-H596; first compound 0.01 µM
  relative viability: 0.967
NCI-H596; first compound 0.03162 µM
  relative viability: 1.04
NCI-H596; first compound 0.1 µM
  relative viability: 1.11
NCI-H596; first compound 0.3162 µM
  relative viability: 0.977
NCI-H596; first compound 1 µM
  relative viability: 0.854
NCI-H727; first compound 0.01 µM
  relative viability: 0.705
NCI-H727; first compound 0.03162 µM
  relative viability: 0.743
NCI-H727; first compound 0.1 µM
  relative viability: 0.944
NCI-H727; first compound 0.3162 µM
  relative viability: 0.967
NCI-H727; first compound 1 µM
  relative viability: 1.08
NCI-H2347; first compound 0.01 µM
  relative viability: 0.923
NCI-H2347; first compound 0.03162 µM
  relative viability: 0.79
NCI-H2347; first compound 0.1 µM
  relative viability: 1.06
NCI-H2347; first compound 0.3162 µM
  relative viability: 0.878
NCI-H2347; first compound 1 µM
  relative viability: 0.931
EMC-BAC-2; first compound 0.01 µM
  relative viability: 0.946
EMC-BAC-2; first compound 0.03162 µM
  relative viability: 0.941
EMC-BAC-2; first compound 0.1 µM
  relative viability: 0.961
EMC-BAC-2; first compound 0.3162 µM
  relative viability: 0.999
EMC-BAC-2; first compound 1 µM
  relative viability: 0.859
NCI-H1993; first compound 0.01 µM
  relative viability: 0.85
NCI-H1993; first compound 0.03162 µM
  relative viability: 0.719
NCI-H1993; first compound 0.1 µM
  relative viability: 0.774
NCI-H1993; first compound 0.3162 µM
  relative viability: 0.785
NCI-H1993; first compound 1 µM
  relative viability: 0.738
HCC-44; first compound 0.01 µM
  relative viability: 1.07
HCC-44; first compound 0.03162 µM
  relative viability: 1.05
HCC-44; first compound 0.1 µM
  relative viability: 1.26
HCC-44; first compound 0.3162 µM
  relative viability: 1.28
HCC-44; first compound 1 µM
  relative viability: 0.865
201T; first compound 0.01 µM
  relative viability: 1.03
201T; first compound 0.03162 µM
  relative viability: 1.04
201T; first compound 0.1 µM
  relative viability: 1.12
201T; first compound 0.3162 µM
  relative viability: 1.08
201T; first compound 1 µM
  relative viability: 0.884
NCI-H838; first compound 0.01 µM
  relative viability: 0.865
NCI-H838; first compound 0.03162 µM
  relative viability: 0.993
NCI-H838; first compound 0.1 µM
  relative viability: 1.2
NCI-H838; first compound 0.3162 µM
  relative viability: 0.969
NCI-H838; first compound 1 µM
  relative viability: 0.563
NCI-H2126; first compound 0.01 µM
  relative viability: 0.786
NCI-H2126; first compound 0.03162 µM
  relative viability: 0.72
NCI-H2126; first compound 0.1 µM
  relative viability: 0.796
NCI-H2126; first compound 0.3162 µM
  relative viability: 0.808
NCI-H2126; first compound 1 µM
  relative viability: 0.726

## COc1nc(C)cnc1NS(=O)(=O)c1cccnc1-c1ccc(-c2nnco2)cc1 [Zibotentan] + CS(=O)(=O)CCNCc1ccc(-c2ccc3ncnc(Nc4ccc(OCc5cccc(F)c5)c(Cl)c4)c3c2)o1 [Lapatinib] (partner 2 µM)
NCI-H647; first compound 0.08 µM
  relative viability: 1.23
NCI-H647; first compound 0.253 µM
  relative viability: 0.924
NCI-H647; first compound 0.8 µM
  relative viability: 0.968
NCI-H647; first compound 2.53 µM
  relative viability: 1.06
NCI-H23; first compound 0.08 µM
  relative viability: 1.22
NCI-H23; first compound 0.253 µM
  relative viability: 0.987
NCI-H23; first compound 0.8 µM
  relative viability: 1.19
NCI-H23; first compound 2.53 µM
  relative viability: 1.26
NCI-H650; first compound 0.08 µM
  relative viability: 0.974
NCI-H650; first compound 0.253 µM
  relative viability: 0.655
NCI-H650; first compound 0.8 µM
  relative viability: 1
NCI-H650; first compound 2.53 µM
  relative viability: 0.904
NCI-H3122; first compound 0.08 µM
  relative viability: 0.99
NCI-H3122; first compound 0.253 µM
  relative viability: 1.03
NCI-H3122; first compound 0.8 µM
  relative viability: 1.03
NCI-H3122; first compound 2.53 µM
  relative viability: 1.01
BEN; first compound 0.08 µM
  relative viability: 0.762
BEN; first compound 0.253 µM
  relative viability: 0.721
BEN; first compound 0.8 µM
  relative viability: 0.68
BEN; first compound 2.53 µM
  relative viability: 0.605
NCI-H2087; first compound 0.08 µM
  relative viability: 1.17
NCI-H2087; first compound 0.253 µM
  relative viability: 0.955
NCI-H2087; first compound 0.8 µM
  relative viability: 1.06
NCI-H2087; first compound 2.53 µM
  relative viability: 1.09
NCI-H2023; first compound 0.08 µM
  relative viability: 0.87
NCI-H2023; first compound 0.253 µM
  relative viability: 0.4
NCI-H2023; first compound 0.8 µM
  relative viability: 0.651
NCI-H2023; first compound 2.53 µM
  relative viability: 0.846
NCI-H1395; first compound 0.08 µM
  relative viability: 1.08
NCI-H1395; first compound 0.253 µM
  relative viability: 0.883
NCI-H1395; first compound 0.8 µM
  relative viability: 0.952
NCI-H1395; first compound 2.53 µM
  relative viability: 1.08
LOU-NH91; first compound 0.08 µM
  relative viability: 0.835
LOU-NH91; first compound 0.253 µM
  relative viability: 0.662
LOU-NH91; first compound 0.8 µM
  relative viability: 0.771
LOU-NH91; first compound 2.53 µM
  relative viability: 0.782
HARA; first compound 0.08 µM
  relative viability: 0.734
HARA; first compound 0.253 µM
  relative viability: 0.813
HARA; first compound 0.8 µM
  relative viability: 0.742
HARA; first compound 2.53 µM
  relative viability: 0.837
NCI-H596; first compound 0.08 µM
  relative viability: 1.03
NCI-H596; first compound 0.253 µM
  relative viability: 1.12
NCI-H596; first compound 0.8 µM
  relative viability: 1.08
NCI-H596; first compound 2.53 µM
  relative viability: 1.08
NCI-H727; first compound 0.08 µM
  relative viability: 0.879
NCI-H727; first compound 0.253 µM
  relative viability: 0.739
NCI-H727; first compound 0.8 µM
  relative viability: 0.781
NCI-H727; first compound 2.53 µM
  relative viability: 1.16
NCI-H2347; first compound 0.08 µM
  relative viability: 1.05
NCI-H2347; first compound 0.253 µM
  relative viability: 0.941
NCI-H2347; first compound 0.8 µM
  relative viability: 1.19
NCI-H2347; first compound 2.53 µM
  relative viability: 0.943
EMC-BAC-2; first compound 0.08 µM
  relative viability: 0.958
EMC-BAC-2; first compound 0.253 µM
  relative viability: 0.805
EMC-BAC-2; first compound 0.8 µM
  relative viability: 0.873
EMC-BAC-2; first compound 2.53 µM
  relative viability: 0.858
NCI-H1993; first compound 0.253 µM
  relative viability: 0.792
NCI-H1993; first compound 0.8 µM
  relative viability: 0.88
NCI-H1993; first compound 2.53 µM
  relative viability: 0.768
HCC-44; first compound 0.08 µM
  relative viability: 1.02
HCC-44; first compound 0.253 µM
  relative viability: 1.01
HCC-44; first compound 0.8 µM
  relative viability: 1.08
HCC-44; first compound 2.53 µM
  relative viability: 1.04
201T; first compound 0.08 µM
  relative viability: 1.03
201T; first compound 0.253 µM
  relative viability: 0.977
201T; first compound 0.8 µM
  relative viability: 1.11
201T; first compound 2.53 µM
  relative viability: 1.02
NCI-H838; first compound 0.08 µM
  relative viability: 0.938
NCI-H838; first compound 0.253 µM
  relative viability: 0.838
NCI-H838; first compound 0.8 µM
  relative viability: 0.922
NCI-H838; first compound 2.53 µM
  relative viability: 1.06
NCI-H2126; first compound 0.08 µM
  relative viability: 0.79
NCI-H2126; first compound 0.253 µM
  relative viability: 0.724
NCI-H2126; first compound 0.8 µM
  relative viability: 0.662
NCI-H2126; first compound 2.53 µM
  relative viability: 0.779
